Legend:
allergic peritonitis [1] = assay: Allergic peritonitis induced with ragweed pollen extract (peritoneal exudate cells); assay type: in vivo, Balb/c mice; conditions: ragweed pollen extract challenge; 30 mg/kg i.p. 5 minutes prior to induction, 3, 6 and 12 hours post-induction; 24 hours after induction
Protocol: Each efficacy on allergic peritonitis was examined according to methods as disclosed in Ouchi et al., "Seibutsu Yakukagaku Jikken Koza, Ensho To Allergy (Inflammation and Allergy) I-3", pp.139 to 151, Hirokawa Publishing Co., Japan and Spicer et al., The International Archives of Allergy and Applied Immunology, 81: 81 to 84, 1986.
A ragweed (Ambrosia artemisiaefolia) pollen extract (1:100, Torii Pharmaceutical Co., Ltd.) was diluted 10-fold with physiological saline and administered subcutaneously to male Balb/c mice (7 weeks old, 20 to 23 g, purchased from JAPAN SLC, Inc.) on Days 0 and 1 at a single dose of 0.1 mL and further on Days 6, 8 and 14 at a single dose of 0.2 mL for sensitization. On Day 20 after the initial sensitization, an antigen solution for induction (a mixture of the aforementioned 10-fold diluted ragweed pollen extract, 50 units/mL of penicillin G potassium, and 0.05 mg/mL of streptomycin sulfate) was administered intraperitoneally to each animal at a dose of 0.2 mL to raise allergic peritonitis. […]
Twenty four hours after induction, mice were sacrificed under ether […] and each penitoneal cavity was lavaged twice or thrice with a washout medium (total volume: 5 mL, physiological saline containing 10 units/mL of heparin). […] The retrieved washout medium was measured for its yield (mL) and the number of exudate cells therein by using Turk solution and counting on a haemocytometer and a total number of PEC was calculated. […] After staining, PEC was subjected to fractional counts under a microscope with classification into eosinophils, neutrophils, lymphocytes/macrophages and basophils based on their form and stain nature (more than 500 PEC per specimen were randomly counted). […] After counting, intraperitoneal exudation inhibition rates were calculated by the following formula and expressed as the therapeutic efficacies: Inhibition Rate (%) =[1 -((PEC in Sensitized/Drug-Treated Mouse) - (PEC in Unsensitized/Saline-Treated Mouse))/((PEC in Sensitized/Saline-Treated Mouse) - (PEC in Unsensitized/Saline-Treated Mouse))]× 100 [formula]

allergic peritonitis [2] = assay: Allergic peritonitis induced with ovalbumin (peritoneal exudate cells); assay type: in vivo, Balb/c mice; conditions: ovalbumin challenge
Protocol: Twenty four hours after induction, mice were sacrificed under ether […] and each penitoneal cavity was lavaged twice or thrice with a washout medium (total volume: 5 mL, physiological saline containing 10 units/mL of heparin). Peritoneal exudate cells (PEC) were harvested in a siliconized glass tube. The retrieved washout medium was measured for its yield (mL) and the number of exudate cells therein by using Turk solution and counting on a haemocytometer and a total number of PEC was calculated. An aliquot thereof (an extent of approximately 20,000 cells of PEC) was taken. Specimens for staining were prepared using Cytospin 3 (CHANDON), and PEC was stained with Dif-Quick solution (International Reagents Corporation). After staining, PEC was subjected to fractional counts under a microscope with classification into eosinophils, neutrophils, lymphocytes/macrophages and basophils based on their form and stain nature (more than 500 PEC per specimen were randomly counted). […] After counting, intraperitoneal exudation inhibition rates were calculated by the following formula and expressed as the therapeutic efficacies: Inhibition Rate (%) =[1 -((PEC in Sensitized/Drug-Treated Mouse) - (PEC in Unsensitized/Saline-Treated Mouse))/((PEC in Sensitized/Saline-Treated Mouse) - (PEC in Unsensitized/Saline-Treated Mouse))]× 100 [formula]
A physiological saline solution containing ovalbumin (0.25 mg/mL) and an aluminum hydroxide gel (4 mg/mL) was administered subcutaneously to male Balb/c mice (7 weeks old, 20 to 23 g, purchased from JAPAN SLC, Inc.) twice at one week interval at a single dose of 0.4 mL for sensitization. On Day 14 after the initial sensitization, an antigen solution for induction (2.5 µg/mL) was administered intraperitoneally to each animal at a dose of 0.4 mL to raise allergic peritonitis. Compound No. 130 (30 mg/kg) or a negative control solvent, physiological saline (10 mL/kg), was administered intraperitoneally to each animal 5 minutes prior to induction, 3 and 6 hours post-induction.
Similarly to Example 24, the peritoneal cavities were lavaged to retrieve PEC. The drained liquids were measured for their yield and total PEC number therein. In the same manner as in Example 24, PEC was stained and subjected to fractional counting under a microscope based on their form. […] Similarly to Example 24, basophils and neutrophils were excluded from subjects to be examined. In the same manner as in Example 24, intraperitoneal exudation inhibition rates were calculated and expressed as the therapeutic efficacies.
In the same manner as in Example 25, male Balb/c mice were sensitized with ovalbumin and an aluminum hydroxide gel, and, on Day 14 after the initial sensitization, treated with an antigen solution to raise allergic peritonitis. Compound No. […]
Similarly to Example 24, the peritoneal cavities were lavaged to retrieve PEC 24 hours after induction. The drained liquids were measured for their yield and total PEC number therein.

Body weight gain in mice = conditions: test compounds 60 mg/kg s.c., prednisolone 10 mg/kg i.p., once a day for 6 days (Days 0-5), average ± standard deviation
Protocol: Accordingly, for assessing the side-effect each of the following test compounds an action on body weight gains was examined.
Next the mice were measured for their body weight. Each body weight gain was calculated on Days 5, 7 and 10 post-administration based on the body weight just prior to administration.

[3] = 30 mg/kg i.p. 5 minutes prior to induction, 3 and 6 hours post-induction
[4] = 30 mg/kg s.c. 6 hours and 5 minutes prior to induction, 24 hours after induction

CNC(=O)[C@H](Cc1ccc(NC(=N)N)cc1)NC(=O)[C@H](CC(C)C)C(CCCc1ccccc1)C(=O)NO (single isomer, unassigned) [Compound No. 130, N-[4-(N-Hydroxyamino)-2(R)-isobutyl-3(R or S)-(3-phenyltrimethylene)succinyl)-L-4'-guanidophenylalanine-N-methylamide 1 acetate]
decrease in total PEC number (allergic peritonitis [1]): 143.8% | inhibition of infiltration of eosinophils into the peritoneal cavity (allergic peritonitis [1]): 57.2% | inhibition of infiltration of lymphocytes/macrophages into the peritoneal cavity (allergic peritonitis [1]): 219.0% | inhibition of infiltration of eosinophils into the peritoneal cavity (allergic peritonitis [2]; [3]): 56.3% | inhibition of infiltration of lymphocytes/macrophages into the peritoneal cavity (allergic peritonitis [2]; [3]): 74.9% | reduction of total PEC numbers (allergic peritonitis [2]; [3]): 70.7% | inhibition of infiltration of eosinophils into the peritoneal cavity (allergic peritonitis [2]; [4]): 38.6% | inhibition of infiltration of lymphocytes/macrophages into the peritoneal cavity (allergic peritonitis [2]; [4]): 91.2% | reduction of total PEC numbers (allergic peritonitis [2]; [4]): 68.5% | Body Weight Gain, Observation Day 5 (Body weight gain in mice; non-administered 0.50± 0.23): 0.57± 0.61 | Body Weight Gain, Observation Day 7 (Body weight gain in mice; non-administered 0.80± 0.48): 0.77± 0.55 | Body Weight Gain, Observation Day 10 (Body weight gain in mice; non-administered 1.07± 0.58): 1.20± 0.26

Reference: patent EP1101492A1, “NOVEL REMEDIES FOR ALLERGIC DISEASES” (FUJI YAKUHIN KOGYO KABUSHIKI KAISHA, priority 1998, dated 2000)
